Source: patent US8802661B2, “C-28 amides of modified C-3 betulinic acid derivatives as HIV maturation inhibitors” (priority 2010, dated 2014)
Read-outs that look alike come from different tables or passages of the source.

System: recombinant NL4-3 virus (Renilla luciferase in nef, Gag P373S)
Assay: HIV Cell Culture Assay (luciferase reporter virus in MT-2 cells)
Type: cell-based
How it was run: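 MT-2 cells infected 4–5 days with NL4-3 carrying Renilla luciferase in nef and Gag P373S, with serial dilutions of inhibitor present. Antiviral activity quantified by luciferase activity, using Dual Luciferase reagents premixed with lysis buffer and read immediately.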

Compound | EC50 (NL43, read-out: EC50 Group) [nM] | EC50 (NL43) [nM]
C=C(C)[C@@H]1CC[C@]2(C(=O)N3CCC[C@@H]3CO)CC[C@]3(C)[C@H](CC[C@@H]4[C@@]5(C)CC=C(c6ccc(C(=O)O)cc6)C(C)(C)[C@@H]5CC[C@]43C)[C@@H]12 [Example 9, 4-((1R,3aS,5aR,5bR,7aR,11aS,11bR,13aR,13bR)-3a-((R)-2-(hydroxymethyl)pyrrolidine-1-carbonyl)-5a,5b,8,8,11a-pentamethyl-1-(prop-1-en-2-yl)-2,3,3a,4,5,5a,5b,6,7,7a,8,11,11a,11b,12,13,13a,13b-octadecahydro-1H-cyclopenta[a]chrysen-9-yl)benzoic acid] | < 100 | –
C=C(C)[C@@H]1CC[C@]2(C(=O)N3CCCC(C(=O)N(CC)CC)C3)CC[C@]3(C)[C@H](CC[C@@H]4[C@@]5(C)CC=C(c6ccc(C(=O)O)cc6)C(C)(C)[C@@H]5CC[C@]43C)[C@@H]12 (stereo partly drawn) [Example 11, 4-((1R,3aS,5aR,5bR,7aR,11aS,11bR,13aR,13bR)-3a-(3-(diethylcarbamoyl)piperidine-1-carbonyl)-5a,5b,8,8,11a-pentamethyl-1-(prop-1-en-2-yl)-2,3,3a,4,5,5a,5b,6,7,7a,8,11,11a,11b,12,13,13a,13b-octadecahydro-1H-cyclopenta[a]chrysen-9-yl)benzoic acid] | – | 61
C=C(C)[C@@H]1CC[C@]2(C(=O)NCCN(C)C)CC[C@]3(C)[C@H](CC[C@@H]4[C@@]5(C)CC=C(c6cc(F)c(C(=O)O)c(F)c6)C(C)(C)[C@@H]5CC[C@]43C)[C@@H]12 [Example 122, 4-((1R,3aS,5aR,5bR,7aR,11aS,11bR,13aR,13bR)-3a-(2-(dimethylamino)ethylcarbamoyl)-5a,5b,8,8,11a-pentamethyl-1-(prop-1-en-2-yl)-2,3,3a,4,5,5a,5b,6,7,7a,8,11,11a,11b,12,13,13a,13b-octadecahydro-1H-cyclopenta[a]chrysen-9-yl)-2,6-difluorobenzoic acid] | < 100 | –
C=C(C)[C@@H]1CC[C@]2(C(=O)NCCNCC(=O)O)CC[C@]3(C)[C@H](CC[C@@H]4[C@@]5(C)CC=C(c6ccc(C(=O)O)cc6)C(C)(C)[C@@H]5CC[C@]43C)[C@@H]12 [Example 81, 4-((1R,3aS,5aR,5bR,7aR,11aS,11bR,13aR,13bR)-3a-(2-(carboxymethylamino)ethylcarbamoyl)-5a,5b,8,8,11a-pentamethyl-1-(prop-1-en-2-yl)-2,3,3a,4,5,5a,5b,6,7,7a,8,11,11a,11b,12,13,13a,13b-octadecahydro-1H-cyclopenta[a]chrysen-9-yl)benzoic acid] | < 100 | –
C=C(C)[C@@H]1CC[C@]2(C(=O)NCCCN(C)C(C)=O)CC[C@]3(C)[C@H](CC[C@@H]4[C@@]5(C)CC=C(c6ccc(C(=O)O)cc6)C(C)(C)[C@@H]5CC[C@]43C)[C@@H]12 [Example 52, 4-((1R,3aS,5aR,5bR,7aR,11aS,11bR,13aR,13bR)-5a,5b,8,8,11a-pentamethyl-3a-(3-(N-methylacetamido)propylcarbamoyl)-1-(prop-1-en-2-yl)-2,3,3a,4,5,5a,5b,6,7,7a,8,11,11a,11b,12,13,13a,13b-octadecahydro-1H-cyclopenta[a]chrysen-9-yl)benzoic acid] | < 100 | –
C=C(C)[C@@H]1CC[C@]2(C(=O)N(C)CCc3ccccn3)CC[C@]3(C)[C@H](CC[C@@H]4[C@@]5(C)CC=C(c6ccc(C(=O)O)cc6)C(C)(C)[C@@H]5CC[C@]43C)[C@@H]12 [Example 24, 4-((1R,3aS,5aR,5bR,7aR,11aS,11bR,13aR,13bR)-5a,5b,8,8,11a-pentamethyl-3a-(methyl(2-(pyridin-2-yl)ethyl)carbamoyl)-1-(prop-1-en-2-yl)-2,3,3a,4,5,5a,5b,6,7,7a,8,11,11a,11b,12,13,13a,13b-octadecahydro-1H-cyclopenta[a]chrysen-9-yl)benzoic acid] | – | 48
C=C(C)[C@@H]1CC[C@]2(C(=O)NCCCN(CCC(=O)O)CCC(=O)O)CC[C@]3(C)[C@H](CC[C@@H]4[C@@]5(C)CC=C(c6ccc(C(=O)O)cc6)C(C)(C)[C@@H]5CC[C@]43C)[C@@H]12 [Example 100, 3,3′-(3-((1R,3aS,5aR,5bR,7aR,11aS,11bR,13aR,13bR)-9-(4-carboxyphenyl)-5a,5b,8,8,11a-pentamethyl-1-(prop-1-en-2-yl)-2,3,3a,4,5,5a,5b,6,7,7a,8,11,11a,11b,12,13,13a,13b-octadecahydro-1H-cyclopenta[a]chrysene-3a-carboxamido)propylazanediyl)dipropanoic acid] | > 100 | –
C=C(C)[C@@H]1CC[C@]2(C(=O)NCCNCCO)CC[C@]3(C)[C@H](CC[C@@H]4[C@@]5(C)CC=C(c6ccc(C(=O)O)cc6)C(C)(C)[C@@H]5CC[C@]43C)[C@@H]12 [Example 74, 4-((1R,3aS,5aR,5bR,7aR,11aS,11bR,13aR,13bR)-3a-(2-(2-hydroxyethylamino)ethylcarbamoyl)-5a,5b,8,8,11a-pentamethyl-1-(prop-1-en-2-yl)-2,3,3a,4,5,5a,5b,6,7,7a,8,11,11a,11b,12,13,13a,13b-octadecahydro-1H-cyclopenta[a]chrysen-9-yl)benzoic acid] | < 100 | –
C=C(C)[C@@H]1CC[C@]2(C(=O)NCc3ncc[nH]3)CC[C@]3(C)[C@H](CC[C@@H]4[C@@]5(C)CC=C(c6ccc(C(=O)O)cc6)C(C)(C)[C@@H]5CC[C@]43C)[C@@H]12 [Example 43] | < 100 | –
C=C(C)[C@@H]1CC[C@]2(C(=O)NCCNCCC(=O)O)CC[C@]3(C)[C@H](CC[C@@H]4[C@@]5(C)CC=C(c6ccc(C(=O)O)cc6)C(C)(C)[C@@H]5CC[C@]43C)[C@@H]12 [Example 91, 4-((1R,3aS,5aR,5bR,7aR,11aS,11bR,13aR,13bR)-3a-(2-(2-carboxyethylamino)ethylcarbamoyl)-5a,5b,8,8,11a-pentamethyl-1-(prop-1-en-2-yl)-2,3,3a,4,5,5a,5b,6,7,7a,8,11,11a,11b,12,13,13a,13b-octadecahydro-1H-cyclopenta[a]chrysen-9-yl)benzoic acid] | < 100 | –
C=C(C)[C@@H]1CC[C@]2(C(=O)NCCCN3CCS(=O)(=O)CC3)CC[C@]3(C)[C@H](CC[C@@H]4[C@@]5(C)CC=C(c6ccc(C(=O)O)c(F)c6)C(C)(C)[C@@H]5CC[C@]43C)[C@@H]12 [Example 105, 4-((1R,3aS,5aR,5bR,7aR,11aS,11bR,13aR,13bR)-3a-((3-(1,1-dioxido-4-thiomorpholinyl)propyl)carbamoyl)-1-isopropenyl-5a,5b,8,8,11a-pentamethyl-2,3,3a,4,5,5a,5b,6,7,7a,8,11,11a,11b,12,13,13a,13b-octadecahydro-1H-cyclopenta[a]chrysen-9-yl)-2-fluorobenzoic acid] | < 100 | –
C=C(C)[C@@H]1CC[C@]2(C(=O)NCCN3CCC(F)(F)CC3)CC[C@]3(C)[C@H](CC[C@@H]4[C@@]5(C)CC=C(c6ccc(C(=O)O)cc6)C(C)(C)[C@@H]5CC[C@]43C)[C@@H]12 [Example 118, 4-((1R,3aS,5aR,5bR,7aR,11aS,11bR,13aR,13bR)-3a-(2-(4,4-difluoropiperidin-1-yl)ethylcarbamoyl)-5a,5b,8,8,11a-pentamethyl-1-(prop-1-en-2-yl)-2,3,3a,4,5,5a,5b,6,7,7a,8,11,11a,11b,12,13,13a,13b-octadecahydro-1H-cyclopenta[a]chrysen-9-yl)benzoic acid] | < 100 | –
C=C(C)[C@@H]1CC[C@]2(C(=O)N3CCC(O)CC3)CC[C@]3(C)[C@H](CC[C@@H]4[C@@]5(C)CC=C(c6ccc(C(=O)O)cc6)C(C)(C)[C@@H]5CC[C@]43C)[C@@H]12 [Example 22, 4-((1R,3aS,5aR,5bR,7aR,11aS,11bR,13aR,13bR)-3a-(4-hydroxypiperidine-1-carbonyl)-5a,5b,8,8,11a-pentamethyl-1-(prop-1-en-2-yl)-2,3,3a,4,5,5a,5b,6,7,7a,8,11,11a,11b,12,13,13a,13b-octadecahydro-1H-cyclopenta[a]chrysen-9-yl)benzoic acid] | < 100 | –
C=C(C)[C@@H]1CC[C@]2(C(=O)NCCCN3CCS(=O)(=O)CC3)CC[C@]3(C)[C@H](CC[C@@H]4[C@@]5(C)CC=C(c6cc(F)c(C(=O)O)c(F)c6)C(C)(C)[C@@H]5CC[C@]43C)[C@@H]12 [Example 123, 4-((1R,3aS,5aR,5bR,7aR,11aS,11bR,13aR,13bR)-3a-((3-(1,1-dioxido-4-thiomorpholinyl)propyl)carbamoyl)-1-isopropenyl-5a,5b,8,8,11a-pentamethyl-2,3,3a,4,5,5a,5b,6,7,7a,8,11,11a,11b,12,13,13a,13b-octadecahydro-1H-cyclopenta[a]chrysen-9-yl)-2,6-difluorobenzoic acid] | < 100 | –
C=C(C)[C@@H]1CC[C@]2(C(=O)NCCCNC(C)=O)CC[C@]3(C)[C@H](CC[C@@H]4[C@@]5(C)CC=C(c6ccc(C(=O)O)cc6)C(C)(C)[C@@H]5CC[C@]43C)[C@@H]12 [Example 53, 4-((1R,3aS,5aR,5bR,7aR,11aS,11bR,13aR,13bR)-3a-(3-acetamidopropylcarbamoyl)-5a,5b,8,8,11a-pentamethyl-1-(prop-1-en-2-yl)-2,3,3a,4,5,5a,5b,6,7,7a,8,11,11a,11b,12,13,13a,13b-octadecahydro-1H-cyclopenta[a]chrysen-9-yl)benzoic acid] | < 100 | –
C=C(C)[C@@H]1CC[C@]2(C(=O)NCCN(C)C(C)=O)CC[C@]3(C)[C@H](CC[C@@H]4[C@@]5(C)CC=C(c6ccc(C(=O)O)cc6)C(C)(C)[C@@H]5CC[C@]43C)[C@@H]12 [Example 75, 4-((1R,3aS,5aR,5bR,7aR,11aS,11bR,13aR,13bR)-5a,5b,8,8,11a-pentamethyl-3a-(2-(N-methylacetamido)ethylcarbamoyl)-1-(prop-1-en-2-yl)-2,3,3a,4,5,5a,5b,6,7,7a,8,11,11a,11b,12,13,13a,13b-octadecahydro-1H-cyclopenta[a]chrysen-9-yl)benzoic acid] | < 100 | –
